Results on one compound are retold here after ChEMBL document CHEMBL1122335, “Synthesis of an N-aminopyrazinonium analogue of cytidine” (J Med Chem, 1983).

Series [1] concerns L1210. Briefly: Growth inhibition of L1210 cells in culture in the first 48 hours of exposure at a concentration of 1 x 10e-5 M. It counts as functional. The following applies: Mus musculus, L1210, 48 h.
The subject of series [2] is L1210. Briefly: Growth inhibition of L1210 cells in culture in the first 48 hours of exposure at a concentration of 5 x 10e-5 M. It counts as functional. The following applies: Mus musculus, L1210, 48 h.
For series [3], the system named is L1210. Briefly: Growth inhibition of L1210 cells in culture in the first 48 hours of exposure at a concentration of 5 x 10e-6 M. In kind it is functional. The following applies: Mus musculus, L1210, 48 h.
Series [4] in a line: Ionization constant of the compound. It counts as physicochemical.

The structures appear in SMILES notation.

As usually defined, the inhibition is the percentage by which the read-out fell short of the control. Low readings indicate little suppression, high ones strong suppression. The term pKa denotes the negative logarithm of the acid dissociation constant. In the series on L1210 [1], `Nn1ccn([C@@H]2O[C@H](CO)[C@@H](O)[C@H]2O)c(=O)c1=O` had an inhibition at 10 µM of 20%. The compound further registered an inhibition at 50 µM in the series on L1210 [2] of 25%. In addition, testing at 5 µM in the series on L1210 [3] gave an inhibition of 15%. Further, in series [4], the pKa is 8.8.
